Among the data in ChEMBL document CHEMBL2146450, “DNA Sequence Preference and Adduct Orientation of Pyrrolo[2,1-c][1,4]benzodiazepine Antitumor Agents” (ACS Med Chem Lett, 2010) are K values, retold here.

Holding throughout (type): nucleic-acid assay
In assay [1] the test system is Nucleic Acid. Briefly: Binding affinity to 5'-AGA-TATA-TTT-TATA-TCT at 200 uM by HPLC/MS analysis.
In assay [2] the test system is Nucleic Acid. Briefly: Binding affinity to 5'-TGA-TATA-TTT-TATA-TCA at 200 uM by HPLC/MS analysis.
Assay [3] concerns Nucleic Acid. Briefly: Binding affinity to 5'-TATA-TGA-TTT-TCA-TATA at 200 uM by HPLC/MS analysis.
In assay [4] the test system is Nucleic Acid. Briefly: Binding affinity to 5'-TATA-AGT-TTT-ACT-TATA at 200 uM by HPLC/MS analysis.
In assay [5] the test system is Nucleic Acid. The assay is described as follows: Binding affinity to 5'-AGT-TATA-TTT-TATA-ACT at 200 uM by HPLC/MS analysis.
Assay [6] relates to Nucleic Acid. The assay is described as follows: Binding affinity to 5'-TATA-TGT-TTT-ACA-TATA at 200 uM by HPLC/MS analysis.
Assay [7] relates to Nucleic Acid. Briefly: Binding affinity to 5'-TATA-AGA-TTT-TCT-TATA at 200 uM by HPLC/MS analysis.
In assay [8] the test system is Nucleic Acid. The assay is described as follows: Binding affinity to 5'-TGT-TATA-TTT-TATA-ACA at 200 uM by HPLC/MS analysis.

With `COC(=O)c1cc(NC(=O)c2cc(NC(=O)CCCOc3cc4c(cc3OC)C(=O)N3CCC[C@H]3C=N4)cn2C)cn1C`, the K was 0.132 µM/min in assay [1]; 0.196 µM/min in assay [2]; above 0.364 µM/min in assay [3]; 0.124 µM/min in assay [4]; 0.096 µM/min in assay [5]; above 0.506 µM/min in assay [6]. The K in assay [7] was 0.091 µM/min; in assay [8], above 0.808 µM/min.
